Test results published in patent publication US6358736B1, “Method for increasing the antigen presenting ability of leukemia cells” (The United States of America as represented by the …, priority 1995, dated 2002).

What was measured:
[1] = system: pooled monocyte plus dendritic cell elutriation fractions; assay: FACS analysis of pooled 150-190 elutriation (APC) fractions after calcium ionophore activation; assay type: cell-based, human; details: 500 ng A23187
Experimental: Two patients were hooked up to Fenwal™ CS-3000 leukapheresis apparatus' running a Procedure 8 modification software program. Patient #1 had been previously diagnosed with colon cancer, and Patient #2 was a normal control. The Fenwal™ apparatus was configured to isolate a sample of neutrophil-depleted, platelet-rich cells from each patients' peripheral blood. After 3-5 hours of leukaphereis, the isolated blood cells from each patient were quickly spun down in a centrifuge and then rinsed in citrate buffer to remove any excess plasma, tumor related proteins or calcium.
Following the citrate buffer rinse, the cells were resuspended in EDTA-free, Ca^++/Mg^++ HBSS. The isolated cells from each patient were then subject to elutriation on a Beckman™ JE-6B elutriation rotor. Once reaching a speed of 3000 rpm, 5×10^9 cells were elutriated by pressurized air at buffer flow rates of 120, 140, 150, 160, 170, 180, 190 and 200 cc/minute.
Each fraction from both patients were immediately placed on ice to prevent cell adherence to the plastic walls of the collection vials. We coulter counted each of the fractions and discarded the r/o fraction because it had greater than a 10% contamination of neutrophils. The 150, 160, 170, 180 and 190 cc/min fractions from Patient #1 and Patient #2 were pooled then subject to calcium ionophore. The pooled fractions from each patient were divided in half, with one half being activated by 500 ng of calcium ionophore A23187 (Sigma), and one half being inactivated. From our previous experiments, we expected that the calcium ionophore treated cells would have a much higher number of dendritic cells due to conversion of monocytes to DCs. Prior to FACS analysis, we activated Patient #1's pooled fractions by incubating both the untreated and calcium ionophore treated cells for 40 hours in the presence of an autologous tumor cell lysate (the patients own tumor cells). Similarly, we activated Patient #2's pooled fractions by incubating both the untreated and calcium ionophore treated cells in the presence of keyhole limpet hemocyanin (KLH) for 40 hours.
The vast majority of cells stained in the pooled fractions were expected to be CD14+(ie: monocytes). The horizontal (X) axis of the FACS plot illustrated staining for DR, B7.1 or B72 surface antigens.

[2] = system: human peripheral blood monocytes; assay: FACS analysis of cell surface markers on cultured peripheral blood monocytes; assay type: cell-based
[3] = system: monocytes; assay: Calcium-chelation luminescence spectrophotometry of intracellular calcium flux; assay type: cell-based, human; details: indol-loaded monocytes; calcium ionophore 180-750 ng/ml
Experimental: Calcium-chelation luminescence spectrophotometry was utilized to measure intracellular calcium fluxes in monocytes. Monoytes were incubated with 5 uM/ml indol, a calcium chelating agent which emits fluorescence at different wavelengths (405 or 480 nm) depending on whether or not it is bound to cycloplasmic calcium. Increased calcium mobilization causes relative shifts in emission from one wavelength to the other. After 30 minute incubation with indol, monocytes were washed, pulsed with a variety of agents such as calcium ionophore, virus, f-MET-LEU-PHE, or LPS. To measure calcium fluxes at subsequent time intervals, cells were stimulated with a 355 nm wavelength beam, and fluorescence emission measured at 405 and 480 nm.

[4] = system: T lymphocyte subpopulation within the PBMC; assay: FACS analysis of T lymphocyte subpopulation in unfractionated PBMC; assay type: cell-based, human; details: A23187 750 mg/ml, 40 hours
Experimental: PBMC were prepared by leukapheresis and Ficoll-Hypaque and placed in culture. Since the cells were never elutriated and no adherence step was performed, these cultures included large numbers of T, B, and NK lymphocytes as well as monocytes. The medium was our standard RPMI 10% human AB serum with antibiotics including amphotericin B. Cells were either untreated or treated for 40 hours with calcium ionophore A23187 […]. Cells were then harvested and analyzed by FACS. Cells were stained with FITC conjugated anti-CD3, anti-CD40, anti-CD57, anti-CD14, or the combination; in addition cells were stained with PE conjugated control antibodies, anti-B7.1, anti-B7.2, etc. In this way the effect of calcium ionophore treatment on each parameter could be clearly delineated.

[5] = system: bone marrow-derived CD34pos cells; assay: FACS and morphologic analysis of cultured bone marrow-derived CD34pos cells; assay type: cell-based, human
Experimental: Bone marrow-derived highly purified CD34^pos cells were cultured for six days in medium containing 20% fetal calf serum, rhSCF, rhGM-CSF, and rhTNF-alpha. […] Cells were centrifuged and replated in 24 well plates in fresh medium containing rhGM-CSF, and rhTNF-alpha but not rhSCF. In addition, individual wells were treated with varied doses of ionophore A23187. Wells were harvested 1, 2, and 6 days subsequently, subjected to FACS analysis or studied morphologically for DC characteristics utilizing polylysine-coated glass slides and Nomarski optics.

[6] = system: WEHI-3; assay: Costimulatory molecule expression on mouse myeloid leukemia line; assay type: cell-based; details: following calcium mobilization
Excerpt: Myeloid leukemia cell lines display marked upregulation of molecules linked to antigen-presentation and acquire increased T cell sensitizing capacity following calcium mobilization with either calcium ionophore or thapsigargin.

[7] = system: HL-60 cells; assay: FACS analysis of cell surface markers on HL-60 cells; assay type: cell-based, human; details: optimal doses, within 20 hours
[8] = colon cancer patient, 40 hours with autologous tumor cell lysate
[9] = normal donor, 40 hours with KLH
[10] = as E78, vs expression prior to culture
[11] = calcium-free RPMI and dialyzed serum
[12] = within 18 hours of treatment initiation

Compound: CNc1ccc2oc(C[C@H]3O[C@@]4(CC[C@H]3C)O[C@H]([C@H](C)C(=O)c3ccc[nH]3)[C@H](C)C[C@H]4C)nc2c1C(=O)O [A23187]
- B7.1 expression [1, 8]: substantial but less uniform upregulation of B7.1
- HLA-DR and B7.2 expression [1, 8]: marked upregulation of HLA-DR and B7.2
- conversion of cells to cocktail negative (dendritic) phenotype [1, 8]: vast majority of cells were now converted to cocktail negative
- HLA-DR, B7.1 and B7.2 expression [1, 9]: markedly upregulated for HLA-DR, B7.1 and B7.2
- conversion of cells to cocktail (CD3, CD14, CD20, CD56) negative (dendritic) phenotype [1, 9]: vast majority of these cells was now cocktail negative
- optimal concentration for DC differentiation of monocytes ([2]; 10% FCS): 180 to 375 ng/mL
- CD14 expression downregulated ([2]; 20 hours, 10% AB serum, amphotericin B omitted, low endotoxin, A23187 750 ng/ml or cytokines (rhIL4 1000 u/ml; +rhGM-CSF 100 ng/ml; +rhTNF-alpha 100 u/ml)): 90%
- surface marker expression in purified monocyte and DC cultures ([2]; A23187 750 ng/ml, 40 hours): upregulation of B7.1, B7.2, ICAM-1., HLA-DR, HLA-ABC, CD40, and CD83
- surface marker expression of purified (>98%) CD14pos monocytes vs prepurified fractions ([2]; A23187 750 ng/ml, 40 hours): downregulated CD14, and upregulated B7.1, B7.2, ICAM-1, HLA-DR, HLA-ABC, CD40 and CD83 equivalently
- activation and dendritic cell phenotypic conversion of pooled monocyte plus DC fractions ([2]; added at the beginning of a 24-48 hr culture period): uniform activation and dendritic cell phenotypic conversion
- B7.1 expression increase [2, 10]: 14 fold
- B7.2 expression increase [2, 10]: 7.5 fold
- CD83 expression increase [2, 10]: 8.7 fold
- HLA-ABC expression increase [2, 10]: 3.0 fold
- HLA-DQ expression increase [2, 10]: 3.4 fold
- HLA-DR increase [2, 10]: 2.9 fold
- suppression of ionophore-induced B7.1 upregulation [2, 11]: 100%
- suppression of ionophore-induced CD14 downregulation [2, 11]: 53%
- optimal concentration for DC differentiation of monocytes ([2]; media with 5% AB serum): 375 to 750 ng/mL
- CD40 expression ([2]; more uniform by 40 hours of treatment): Modest upregulation of CD40
- optimal concentration for DC differentiation of monocytes ([2]; serum free media): 45 to 90 ng/mL
- morphology by electron microscopy ([2]; within 20-40 hours of treatment): markedly increased endoplasmic reticulum, lysosomal and Golgi content
- B7.1 (CD80) expression [2, 12]: Variable levels of de novo expression of B7.1 (CD80)
- B7.2 (CD86) expression [2, 12]: marked upregulation of B7.2 (CD86)
- CD83 expression [2, 12]: de novo and essentially uniform expression
- cell surface CD14 expression [2, 12]: marked downregulation of cell surface CD14
- intracellular calcium flux / mobilization [3]: marked sustained monocyte mobilization
- B7.2 upregulation over culture without ionophore [4]: 10 fold
- CD40 upregulation [4]: 4 fold
- HLA-DR upregulation [4]: 6 fold
- ICAM-1 upregulation [4]: 3.3 fold
- increase in purity of cells with activated myeloid dendritic cell phenotype at final harvest [5]: approximately six
- CD14 expression ([5]; 375-750 ng/ml, within 20 hours): marked CD14 downregulation
- cells with marked upregulation of B7.1, B7.2, ICAM-1, CD83, CD40 and CD1a ([5]; 375-750 ng/ml, within 20 hours): > 85 % of cells
- increase in yield of cells with activated myeloid dendritic cell phenotype vs wells without ionophore ([5]; absolute numbers of cells recovered): approximately three
- optimal concentration for dendritic cell immunophenotype ([5]; within 20 hours of treatment): 375 to 750 ng/mL
- morphology ([5]; within 40 hours of treatment): virtually all cells manifested dendritiform morphology
- costimulatory molecule expression [6]: markedly increased costimulatory molecule expression
- expression of CD83, ICAM-1, B7.1 and B7.2 [7]: uniform de novo expression of CD83, ICAM-1, B7.1, and B7.2
